Like-named read-outs stand apart in the source and are kept apart here.
Legend:
cardiovascular responses = test: Interaction and pretreatment experiments with diguanido-II (cardiovascular and respiratory responses); format: in vivo
[1] = Lethal dose 50 (LD50) through i.p. route in mice; details: mouse, in vivo, ip
Protocol: The lethal dose 50 (LD50) of guanido-I through i.p. route in mice turned out to be 57 mg±3.6 per kg.
The lethal dose 50 (LD50) of the diguanido-II through i.p. route in mice, turned out to be 7 mg±0.6 per kg.

Protocol for male Wistar rats: In order to check its activity, diguanido-II was dissolved in a 0.9 % sodium chloride solution and administered through "rapid" i.v. route in male Wistar rats, under general anaesthesia obtained by means of 10% ethyl urethan (i ml/hg).
The active ingredients called guanido-III, -IV, -V, as well as agmatine and galegine, were also tested, after having been administered through "rapid" i.v. route in male Wistar rats (weighing average 280±5 g) under general anaesthesia obtained by means of 10% ethyl uretan (1 ml/hg, i.p.). The general experimental conditions were exactly the same as previously mentioned for guanido-I and diguanido-II, so that the cardiovascular and respiratory effects could be compared.
The parameters measured are as follows: systolic and diastolic systemic arterial pressure (AP), heart rate (HR), maximum rate of increase in the left ventricular isovolumetric pressure (dp/dt), respiratory frequency (RF) and tidal volume (TV). The doses (in μg/kg body weight, referred to the active substance) varied from 50 μg/kg to 6,400 μg/kg (ratio=2.0); in some cases higher does have been employed.

In the case of `COc1ccc([C@@H]2[C@@H](C(=O)NCCCCNC(=N)NCC=C(C)C)[C@@H](C(=O)NCCCCNC(=N)NCC=C(C)C)[C@@H]2c2ccc(OC)c(OC)c2)cc1OC` [diguanido-II], the “cardiovascular responses after previous treatment with Hexameton” value (cardiovascular responses; previous treatment with Hexameton (ganglioplegic)) is reported as “caused an increase in the cardiovascular responses”, the “cardiovascular responses to acetylcholine and isoproterenol after previous treatment” value (cardiovascular responses; previous treatment with diguanido-II, agonists i.v., linear with agonist dose) is reported as “increased the cardiovascular responses to administration, through i.v. route, of acetylcholine and isoproterenol” and the “cardiovascular responses to nor-adrenaline and adrenaline after previous treatment” value (cardiovascular responses; previous treatment with diguanido-II, hypertensive doses of agonists) is reported as “decreased the cardiovascular responses induced by hypertensive doses of nor-adrenaline and of adrenaline”. The “Δ AF” value (male Wistar rats; 50 μg/kg i.v.) was “+18.8 ± 3.40 ml/min”, the “Δ AF %” value (male Wistar rats; 50 μg/kg i.v.) was “+43 ± 3%” and the “Δ AP % DIAST” value (male Wistar rats; 50 μg/kg i.v.) was “+11.0 ± 1.7%”. The “Δ AP % SYST” value (male Wistar rats; 50 μg/kg i.v.) was “+15.0 ± 2.7%”, the “Δ AP DIAST” value (male Wistar rats; 50 μg/kg i.v.) was “+9.8 ± 1.7 mmHg” and the “Δ AP SYST” value (male Wistar rats; 50 μg/kg i.v.) was “+17.2 ± 2.4 mmHg”. For the same compound, the “Δ HR” value (male Wistar rats; 50 μg/kg i.v.) was -9 ± 3 beats/min, the “Δ HR %” value (male Wistar rats; 50 μg/kg i.v.) was -3 ± 1% and the “Δ SV” value (male Wistar rats; 50 μg/kg i.v.) was “+72.6 ± 5 μl”. For the same compound, the “Δ SV %” value (male Wistar rats; 50 μg/kg i.v.) was “+61 ± 5%”, the “Δ TV” value (male Wistar rats; 50 μg/kg i.v.) was “+13 ± 3%” and the Δ dp/dt (male Wistar rats; 50 μg/kg i.v.) was “+1070 ± 90 mmHg/sec”. For the same compound, the Δ dp/dt % (male Wistar rats; 50 μg/kg i.v.) was “+17 ± 4%”, the “Δ AF” value (male Wistar rats; 100 μg/kg i.v.) was “+10.8 ± 1.20 ml/min” and the “Δ AF %” value (male Wistar rats; 100 μg/kg i.v.) was “+25 ± 1%”. For the same compound, the “Δ AP % DIAST” value (male Wistar rats; 100 μg/kg i.v.) was “+11.0 ± 1.1%”, the “Δ AP % SYST” value (male Wistar rats; 100 μg/kg i.v.) was “+10.0 ± 2.6%” and the “Δ AP DIAST” value (male Wistar rats; 100 μg/kg i.v.) was “+10.2 ± 1.1 mmHg”. The “Δ AP SYST” value (male Wistar rats; 100 μg/kg i.v.) was “+11.7 ± 2.5 mmHg”, the “Δ HR” value (male Wistar rats; 100 μg/kg i.v.) was -10 ± 1 beats/min and the “Δ HR %” value (male Wistar rats; 100 μg/kg i.v.) was -3 ± 1%. The “Δ SV” value (male Wistar rats; 100 μg/kg i.v.) was “+19.8 ± 6 μl”, the “Δ SV %” value (male Wistar rats; 100 μg/kg i.v.) was “+17 ± 6%” and the “Δ TV” value (male Wistar rats; 100 μg/kg i.v.) was “+4 ± 1%”. For the same compound, the Δ dp/dt (male Wistar rats; 100 μg/kg i.v.) was “+1129 ± 82 mmHg/sec”, the Δ dp/dt % (male Wistar rats; 100 μg/kg i.v.) was “+18 ± 1%” and the “Δ AF” value (male Wistar rats; 200 μg/kg i.v.) was -13.8 ± 4.20 mL/min. For the same compound, the “Δ AF %” value (male Wistar rats; 200 μg/kg i.v.) was -32 ± 4%, the “Δ AP % DIAST” value (male Wistar rats; 200 μg/kg i.v.) was -9.0 ± 1.8% and the “Δ AP % SYST” value (male Wistar rats; 200 μg/kg i.v.) was -13.0 ± 1.4%. For the same compound, the “Δ AP DIAST” value (male Wistar rats; 200 μg/kg i.v.) was -13.1 ± 1.8 mmHg, the “Δ AP SYST” value (male Wistar rats; 200 μg/kg i.v.) was -14.4 ± 1.4 mmHg and the “Δ HR” value (male Wistar rats; 200 μg/kg i.v.) was -13 ± 4 beats/min. The “Δ HR %” value (male Wistar rats; 200 μg/kg i.v.) was -4 ± 0.3%, the “Δ SV” value (male Wistar rats; 200 μg/kg i.v.) was “+23.1 ± 6 μl” and the “Δ SV %” value (male Wistar rats; 200 μg/kg i.v.) was “+19 ± 6%”. For the same compound, the “Δ TV” value (male Wistar rats; 200 μg/kg i.v.) was “+3 ± 2%”, the Δ dp/dt (male Wistar rats; 200 μg/kg i.v.) was “+1369 ± 170 mmHg/sec” and the Δ dp/dt % (male Wistar rats; 200 μg/kg i.v.) was “+21 ± 4%”. For the same compound, the “Δ AF” value (male Wistar rats; 400 μg/kg i.v.) was -14.3 ± 5.7 mL/min, the “Δ AF %” value (male Wistar rats; 400 μg/kg i.v.) was -33 ± 6% and the “Δ AP % DIAST” value (male Wistar rats; 400 μg/kg i.v.) was -18.0 ± 1.4%. For the same compound, the “Δ AP % SYST” value (male Wistar rats; 400 μg/kg i.v.) was -18.0 ± 1.9%, the “Δ AP DIAST” value (male Wistar rats; 400 μg/kg i.v.) was -17.0 ± 1.4 mmHg and the “Δ AP SYST” value (male Wistar rats; 400 μg/kg i.v.) was -19.8 ± 1.9 mmHg. The “Δ HR” value (male Wistar rats; 400 μg/kg i.v.) was -16 ± 5 beats/min, the “Δ HR %” value (male Wistar rats; 400 μg/kg i.v.) was -5 ± 2% and the “Δ SV” value (male Wistar rats; 400 μg/kg i.v.) was -46.2 ± 4 µL. The “Δ SV %” value (male Wistar rats; 400 μg/kg i.v.) was -39 ± 4%, the “Δ TV” value (male Wistar rats; 400 μg/kg i.v.) was -51 ± 7% and the Δ dp/dt (male Wistar rats; 400 μg/kg i.v.) was “+2615 ± 181 mmHg/sec”. For the same compound, the Δ dp/dt % (male Wistar rats; 400 μg/kg i.v.) was “+41 ± 5%”, the “Δ AF” value (male Wistar rats; 800 μg/kg i.v.) was -25.0 ± 6.1 mL/min and the “Δ AF %” value (male Wistar rats; 800 μg/kg i.v.) was -57 ± 6%. For the same compound, the “Δ AP % DIAST” value (male Wistar rats; 800 μg/kg i.v.) was -34.0 ± 3.1%, the “Δ AP % SYST” value (male Wistar rats; 800 μg/kg i.v.) was -27.0 ± 3.6% and the “Δ AP DIAST” value (male Wistar rats; 800 μg/kg i.v.) was -31.2 ± 3.1 mmHg. For the same compound, the “Δ AP SYST” value (male Wistar rats; 800 μg/kg i.v.) was -30.0 ± 3.6 mmHg, the “Δ HR” value (male Wistar rats; 800 μg/kg i.v.) was -16 ± 5.5 beats/min and the “Δ HR %” value (male Wistar rats; 800 μg/kg i.v.) was -5 ± 2%. For the same compound, the “Δ SV” value (male Wistar rats; 800 μg/kg i.v.) was -85.8 ± 9 µL, the “Δ SV %” value (male Wistar rats; 800 μg/kg i.v.) was -72 ± 9% and the “Δ TV” value (male Wistar rats; 800 μg/kg i.v.) was -93 ± 8%. For the same compound, the Δ dp/dt (male Wistar rats; 800 μg/kg i.v.) was “+3282 ± 269 mmHg/sec”, the Δ dp/dt % (male Wistar rats; 800 μg/kg i.v.) was “+51 ± 7%” and the “Δ AF” value (male Wistar rats; 1600 μg/kg i.v.) was -36.1 ± 4.8 mL/min. The “Δ AF %” value (male Wistar rats; 1600 μg/kg i.v.) was -83 ± 5%, the “Δ AP % DIAST” value (male Wistar rats; 1600 μg/kg i.v.) was -47.0 ± 6.8% and the “Δ AP % SYST” value (male Wistar rats; 1600 μg/kg i.v.) was -36.0 ± 5.3%. The “Δ AP DIAST” value (male Wistar rats; 1600 μg/kg i.v.) was -43.4 ± 6.8 mmHg, the “Δ AP SYST” value (male Wistar rats; 1600 μg/kg i.v.) was -41.1 ± 5.3 mmHg and the “Δ HR” value (male Wistar rats; 1600 μg/kg i.v.) was -30 ± 6 beats/min. The “Δ HR %” value (male Wistar rats; 1600 μg/kg i.v.) was -9 ± 3%, the “Δ SV” value (male Wistar rats; 1600 μg/kg i.v.) was -97.4 ± 8 µL and the “Δ SV %” value (male Wistar rats; 1600 μg/kg i.v.) was -82 ± 8%. The “Δ TV” value (male Wistar rats; 1600 μg/kg i.v.) was -98 ± 5%, the Δ dp/dt (male Wistar rats; 1600 μg/kg i.v.) was “+3676 ± 264 mmHg/sec” and the Δ dp/dt % (male Wistar rats; 1600 μg/kg i.v.) was “+57 ± 6%”. The “Δ AF” value (male Wistar rats; 3200 μg/kg i.v.) was -41.0 ± 6.9 mL/min, the “Δ AF %” value (male Wistar rats; 3200 μg/kg i.v.) was -94 ± 7% and the “Δ AP % DIAST” value (male Wistar rats; 3200 μg/kg i.v.) was -58.0 ± 4.2%. For the same compound, the “Δ AP % SYST” value (male Wistar rats; 3200 μg/kg i.v.) was -42.0 ± 6.5%, the “Δ AP DIAST” value (male Wistar rats; 3200 μg/kg i.v.) was -53.0 ± 4.2 mmHg and the “Δ AP SYST” value (male Wistar rats; 3200 μg/kg i.v.) was -47.8 ± 6.5 mmHg. The “Δ HR” value (male Wistar rats; 3200 μg/kg i.v.) was -41 ± 8 beats/min, the “Δ HR %” value (male Wistar rats; 3200 μg/kg i.v.) was -12 ± 3% and the “Δ SV” value (male Wistar rats; 3200 μg/kg i.v.) was -117.2 ± 8 µL. For the same compound, the “Δ SV %” value (male Wistar rats; 3200 μg/kg i.v.) was -98 ± 8%, the “Δ TV” value (male Wistar rats; 3200 μg/kg i.v.) was -100% and the Δ dp/dt (male Wistar rats; 3200 μg/kg i.v.) was “+4708 ± 430 mmHg/sec”. For the same compound, the Δ dp/dt % (male Wistar rats; 3200 μg/kg i.v.) was “+73 ± 9%”, the “reflected tachycardia (in words)” value (male Wistar rats; all dose levels, i.v., rat) was “does not cause any reflected tachycardia” and the “bradycardia / reduction of heart rate (in words)” value (male Wistar rats; all doses, i.v., rat) was “reduction of heart rate (HR), at all doses”. For the same compound, the “action on the heart inotropism (in words)” value (male Wistar rats; i.v., rat) was “a constant stimulating action on the heart inotropism”, the “hypotensive effect with respect to guanido-I (in words)” value (male Wistar rats; i.v., rat, vs guanido-I) was “higher pharmacological power as to hypotensive effect” and the “effects on AP, AF, RF and TV (in words)” value (male Wistar rats; i.v., increase at 50-100 or 50-200 μg/kg, decrease up to 3,200 μg/kg) was “biphasic effects on AP, AF, RF and TV”. For the same compound, the LD50 [1] was 7 mg/kg.

Reference: US5059624A, “Guanidine derivatives having hypotensive activity, composition containing them and process for obtaining them” (Consiglio Nazionale Delle Ricerche, priority 1988, dated 1991)
